Reference: publication PMC12856912, “Structure-Guided Semisynthesis of Blasticidin S–Amicetin Chimeras as Selective Ribosome Inhibitors” (Journal of the American Chemical Society, 2026)
Values after ≈ are worked out from the molar mass of the structure shown.

Experiments:
[1] = Cytotoxicity assay (MTS/PMS); format: cell-based; conditions: monkey, Vero cells (monkey kidney epithelial cells); 24 h treatment, MTS/PMS, average of three biological replicates; read-out: CC50 against Vero cells
Outline: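 Vero cells were allowed to adhere for 24 h in DMEM with 10% FBS at 37 °C, then exposed to serial compound dilutions for 24 h. Viability was measured by MTS/PMS (4 h, absorbance at 490 nm) and normalized to vehicle. CC50 is the concentration giving 50% viability, averaged over three biological replicates.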

MRSA ATCC 43300 = experiment: Antibacterial MIC assay, serial dilution; format: cell-based, Staphylococcus aureus; conditions: for Selectivity index (CC50/MIC) MRSA 43300: CC50 Vero cells / MIC; for MIC: Staphylococcus aureus, read-out: MIC MRSA ATCC 43300
Outline: (§1)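 Broth microdilution in cation-adjusted Mueller-Hinton broth with an inoculum at OD600 0.004 and final compound levels of 128–1 μg/mL. Plates ran 16–18 h at 37 °C, or 24 h for VRE. OD600 was normalized to controls, and MIC = lowest concentration inhibiting >90% growth; two biological replicates were run in duplicate.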

S. aureus ATCC 6538P = experiment: Antibacterial MIC assay, serial dilution; format: cell-based, Staphylococcus aureus; conditions: for Selectivity index (CC50/MIC) S. aureus 6538P: CC50 Vero cells / MIC; for MIC: Staphylococcus aureus, ATCC 6538P / ATCC 6539P, read-out: MIC S. aureus ATCC 6539P
Outline: as §1

S. aureus ΔNorA = experiment: Antibacterial MIC assay, serial dilution; format: cell-based, Staphylococcus aureus; conditions: for Selectivity index (CC50/MIC) S. aureus ΔNorA: CC50 Vero cells / MIC; for MIC: Staphylococcus aureus, read-out: MIC S. aureus ∆NorA
Outline: as §1

MRSA NRS384 (USA300) = experiment: Multi-step resistance selection (serial passage); format: cell-based, Staphylococcus aureus; conditions: 15 days of serial passaging; resistance = 4-fold shift in MIC
Experimental: culture serv ed as an untreated control. The cultures were aerobically maintai ned at 37°C in shaking incubator. At specifi c sampling times, aliquots were collected, resuspended in phosphate-buffered saline (PBS) and distributed to three replicates on tryptic soy agar (TSA). After a 24-hour incubation period at 37°C, the number of colony- forming units (CFUs) was evaluated.
F i g u re S 1. Time kill results against MRSA USA 300 at 5X and 10X MIC. Compound P3 ( 38) is shown as red squares, compound P5( 40) is shown as green tri angles. Vancomycin (inverted purple triangle) is used as a b act ericidal control and linezolid (orange diamond) as a bacteriostatic control with DMSO (blue circles ) as a neg ative control.
Multi-step resistance selection
To assess the ability of M R S A NRS384 (USA300) to develop resistance to P -NM and P-AM, a multi- step serial passage experiment was used, as described previously.4-6 MRSA strain was serially passaged with sub inhibitory concentrations of compounds and control drugs (Rifampicin and linezolid) in 1 5passages over a period of two weeks. Resistance was defined as a 4 -fold shift […]
F i g u re S 2.Multi -step resistance selection for blastimidine P3 ( 38) and blastimidine P5 (40) , rifampicin, and linezolid evaluated against methicillin -resistant S. aureus (MRSA) NRS384 (USA300) for 15days. […]

For CNc1ccc(C(=O)Nc2ccn([C@H]3C=C[C@H](NC(=O)C[C@@H](N)CCN(C)C(=N)N)[C@@H](C(=O)NCCc4ccccc4)O3)c(=O)n2)cc1 [Blastimidine P3], the CC50 at 24 h [1] was > 256 µg/mL, the “Selectivity index (CC50/MIC) MRSA 43300” value (MRSA ATCC 43300) was >3.0 and the MIC (MRSA ATCC 43300) was 64 to 128 µg/mL (≈ 97.2 to 194 µM). For the same compound, the “Selectivity index (CC50/MIC) S. aureus 6538P” value (S. aureus ATCC 6538P) was >12, the MIC (S. aureus ATCC 6538P) was 16 to 32 µg/mL (≈ 24.3 to 48.6 µM) and the “Selectivity index (CC50/MIC) S. aureus ΔNorA” value (S. aureus ΔNorA) was >48. The MIC (S. aureus ΔNorA) was 4 to 8 µg/mL (≈ 6.07 to 12.1 µM) and the “resistance development on serial passaging” value (MRSA NRS384 (USA300)) was “did not produce a resistant phenotype”.
In the case of CN(CC[C@H](N)CC(=O)N[C@H]1C=C[C@H](n2ccc(NC(=O)c3ccc(NC(=O)[C@@](C)(N)CO)cc3)nc2=O)O[C@@H]1C(=O)NCCc1ccccc1)C(=N)N [Blastimidine P5], the CC50 at 24 h [1] was > 256 µg/mL, the “Selectivity index (CC50/MIC) MRSA 43300” value (MRSA ATCC 43300) was >8.0 and the MIC (MRSA ATCC 43300) was 32 µg/mL (≈ 42.9 µM). The “Selectivity index (CC50/MIC) S. aureus 6538P” value (S. aureus ATCC 6538P) was >16, the MIC (S. aureus ATCC 6538P) was 16 µg/mL (≈ 21.5 µM) and the “Selectivity index (CC50/MIC) S. aureus ΔNorA” value (S. aureus ΔNorA) was >16. For the same compound, the MIC (S. aureus ΔNorA) was 16 µg/mL (≈ 21.5 µM) and the “resistance development on serial passaging” value (MRSA NRS384 (USA300)) was “did not produce a resistant phenotype”.
